In PMC12340956, “Tranylcypromine-Based LSD1 Inhibitors as Useful Agents to Reduce Viability of” (ACS Infectious Diseases, 2025):
Like-named read-outs stand apart in the source and are kept apart here.

Key:
[1] = test system: S. mansoni juvenile forms; experiment: Speed-of-action assay in juvenile forms; format: cell-based, Schistosoma mansoni; details: for IC50: Schistosoma mansoni, read-out: IC50 (speed of action, juvenile forms); for Percentage of effect: juvenile forms
Source text: (§1) To better characterize a selection of our LSD1i in vitro, we assessed the onset of their action, defined as the time required for an observable antischistosomal effect. […] For detailed percentages of activity at each time point, refer to the Supporting Information (Tables S2 and S3 in Supporting Information).

[2] = target: T1, human LSD1-CoREST complex (Homo sapiens, UniProt O60341); parameters: method as in footnote c (number not given); details: positive control; ref footnote c (number not given); read-out: IC50 (hLSD1 direct inhibition); cited from earlier work
T1 construct: made in house

[3] = MTT cytotoxicity in RPE cells; format: cell-based; details: human, retinal pigment epithelial (RPE) cells
NTS = experiment: Speed-of-action assay in NTS; format: cell-based, Schistosoma mansoni; details: for Percentage of effect: NTS; for IC50: Schistosoma mansoni, read-out: IC50 (speed of action, NTS)
Source text: as §1

[4] = MTT cytotoxicity in MRC-5 cells; format: cell-based; details: human, MRC-5 lung diploid fibroblast cells
adult worms = experiment: Adult worm viability phenotypic assay, 72 h; details: Schistosoma mansoni, read-out: IC50 (adult worm viability)
Method: The life cycle is maintained at the Swiss TPH as described previously. Cercariae were obtained from infected snails by exposing them to a strong light source for 3–4 h in pond water.
For NTS and adult worms, transparent flat-bottom 96- and 24-well plates were used, respectively (Sarstedt, Switzerland). For juvenile worms, 48-well plates were used with 3–6 worms per plate and RPMI medium with 5% FCS and 1% penicillin/streptomycin. Compounds were initially tested at 20 and 10 μM in triplicate on NTS and repeated once; each well contained 30–40 NTS. Phenotypic reference points such as motility, morphology, and granularity were used to score incubated parasites’ overall viability (scores from 0 to 3). […] Identified hits from the NTS screening were tested on adult worms. […] The experiment was conducted in duplicate and repeated; standard deviations were calculated from two wells. […] For all in vitro assays, negative controls (DMSO at the highest tested concentration) were included.

juvenile and adult worms = test system: juvenile and adult worms; parameters: method as in earlier work of the authors (number not given); details: ref earlier work of the authors (number not given); cited from earlier work
[5] = test system: newly transformed schistosomula (NTS); experiment: NTS viability phenotypic screening, 72 h
[6] = 5 μM, read-out: percentage of viability, 72 h
[7] = 10 μM, read-out: percentage of viability, 72 h
[8] = 25 μM, read-out: percentage of viability, 72 h
[9] = 50 μM, read-out: percentage of viability, 72 h
[10] = read-out: IC50 (cell viability)

SMILES: C#Cc1ccc(C(=O)Nc2ccc(C3CC3N)cc2)cc1 (stereo not drawn) [MC3935, reference compound]
- IC50 ([1]; 4 h): > 20 µM
- IC50 ([1]; 24 h): > 20 µM
- IC50 ([1]; 48 h): > 20 µM
- IC50 ([1]; 72 h): 17.7 µM
- Percentage of effect ([1]; 4 h, 1 μM): 16.67%
- Percentage of effect ([1]; 4 h, 10 μM): 23.33%
- Percentage of effect ([1]; 4 h, 20 μM): 41.82%
- Percentage of effect ([1]; 24 h, 1 μM): 17.24%
- Percentage of effect ([1]; 24 h, 10 μM): 31.03%
- Percentage of effect ([1]; 24 h, 20 μM): 38.46%
- Percentage of effect ([1]; 48 h, 1 μM): 26.92%
- Percentage of effect ([1]; 48 h, 10 μM): 32.69%
- Percentage of effect ([1]; 48 h, 20 μM): 39.58%
- Percentage of effect ([1]; 72 h, 1 μM): 31.48%
- Percentage of effect ([1]; 72 h, 10 μM): 39%
- Percentage of effect ([1]; 72 h, 20 μM): 56.25%
- IC50 [2]: 0.52 µM
- viability at 72 h, 5 µM [3, 6]: 84 ± 18%
- viability at 72 h, 10 µM [3, 7]: 87 ± 24%
- viability at 72 h, 25 µM [3, 8]: 82 ± 11%
- viability at 72 h, 50 µM [3, 9]: 100 ± 33%
- IC50 at 72 h [3, 10]: > 100 µM
- Percentage of effect (NTS; 4 h, 10 μM): 21.15%
- Percentage of effect (NTS; 4 h, 20 μM): 23.08%
- Percentage of effect (NTS; 24 h, 10 μM): 41.07%
- Percentage of effect (NTS; 24 h, 20 μM): 41.07%
- Percentage of effect (NTS; 48 h, 10 μM): 34.69%
- Percentage of effect (NTS; 48 h, 20 μM): 57.14%
- Percentage of effect (NTS; 72 h, 10 μM): 51.02%
- Percentage of effect (NTS; 72 h, 20 μM): 59.18%
- IC50 (NTS; 4 h): > 20 µM
- IC50 (NTS; 24 h): > 20 µM
- IC50 (NTS; 48 h): 17.6 µM
- IC50 (NTS; 72 h): 11.5 µM
- viability at 72 h, 5 µM [4, 6]: 94 ± 10%
- viability at 72 h, 10 µM [4, 7]: 97 ± 9%
- viability at 72 h, 25 µM [4, 8]: 93 ± 17%
- viability at 72 h, 50 µM [4, 9]: 94 ± 10%
- IC50 at 72 h [4, 10]: > 100 µM
- IC50 (adult worms): > 10 µM
- time to parasite death (juvenile and adult worms): ≤ 96 h
- Percentage of reduction of NTS viability, 72 h ([5]; 1 μM): 33.3 ± 0.0%
- Percentage of reduction of NTS viability, 72 h ([5]; 10 μM): 45.5 ± 4.3%
- Percentage of reduction of NTS viability, 72 h ([5]; 20 μM): 100 ± 0.0%
- IC50 ([5]; Schistosoma mansoni, read-out: IC50 (NTS viability)): 1.95 µM
